According to PubChem BioAssay (NCI):
≈ marks a conversion by molar mass, not a printed value.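 These data come from cells grown in 96-well plates and exposed to compound for 48 hours at five concentrations. At the GI50, growth is halved. TGI: total growth inhibition.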 Peptide text beside a SMILES is read from it.

How the values were obtained:
Test in all cases: inhibition of tumour cell growth, NCI panel, 48 h
[1] = system: A498 renal
[2] = system: A549 NSCLC
[3] = system: BT-549 breast
[4] = system: CAKI-1 renal
[5] = system: CCRF-CEM leukemia
[6] = system: COLO 205 colon
[7] = system: DU-145 prostate
[8] = system: HCC-2998 colon
[9] = system: HCT-15 colon
[10] = system: HL-60(TB) leukemia
[11] = system: HOP-62 NSCLC
[12] = system: HS 578T breast
[13] = system: HT29 colon
[14] = system: K-562 leukemia
[15] = system: KM12 colon
[16] = system: MCF7 breast
[17] = system: MDA-MB-231 breast
[18] = system: MDA-MB-435
[19] = system: MOLT-4 leukemia
[20] = system: NCI-H226 lung
[21] = system: NCI-H23 lung
[22] = system: NCI-H460 lung
[23] = system: NCI-H522 lung
[24] = system: OVCAR-3 ovarian
[25] = system: OVCAR-4 ovarian
[26] = system: OVCAR-5 ovarian
[27] = system: PC-3 prostate
[28] = system: RPMI-8226 leukemia
[29] = system: SF-268 CNS
[30] = system: SK-MEL-28 melanoma
[31] = system: SK-MEL-5 melanoma
[32] = system: SK-OV-3 ovarian
[33] = system: SN12C renal
[34] = system: SNB-75 CNS
[35] = system: SR leukemia
[36] = system: SW-620 colon
[37] = system: T-47D breast
[38] = system: TK-10 renal
[39] = system: U251 CNS
[40] = system: UACC-257 melanoma
[41] = system: UACC-62 melanoma
[42] = system: UO-31 renal
[43] = system: 786-0 renal
[44] = system: ACHN renal
[45] = system: EKVX NSCLC
[46] = system: HCT-116 colon
[47] = system: HOP-92 NSCLC
[48] = system: IGROV1 ovarian
[49] = system: LOX IMVI melanoma
[50] = system: M14 melanoma
[51] = system: MALME-3M melanoma
[52] = system: NCI/ADR-RES ovarian
[53] = system: OVCAR-8 ovarian
[54] = system: RXF 393 renal
[55] = system: SF-295 CNS
[56] = system: SF-539 CNS
[57] = system: SK-MEL-2 melanoma
[58] = system: SNB-19 CNS

COc1cc2nc(N3CCC[C@@H](NC4=CC(=O)c5ccccc5C4=O)C3)nc(N)c2cc1OC
GI50 [1]: 18.5 µM
TGI [1]: 40.9 µM
GI50 [2]: 1.97 µM
TGI [2]: 3.8 µM
GI50 [3]: 2.1 µM
TGI [3]: 4.66 µM
GI50 [4]: 2.02 µM
TGI [4]: 4.12 µM
GI50 [5]: 1.96 µM
TGI [5]: 4.56 µM
GI50 [6]: 1.93 µM
TGI [6]: 3.55 µM
GI50 [7]: 2.03 µM
TGI [7]: 3.78 µM
GI50 [8]: 1.85 µM
TGI [8]: 3.3 µM
GI50 [9]: 2.31 µM
TGI [9]: 6.02 µM
GI50 [10]: 1.96 µM
TGI [10]: 4.05 µM
GI50 [11]: 2.16 µM
TGI [11]: 4.26 µM
GI50 [12]: 2.14 µM
TGI [12]: 4.95 µM
GI50 [13]: 1.88 µM
TGI [13]: 3.82 µM
GI50 [14]: 0.427 µM
TGI [14]: 2.36 µM
GI50 [15]: 1.81 µM
TGI [15]: 3.33 µM
GI50 [16]: 1.71 µM
TGI [16]: 3.39 µM
GI50 [17]: 1.69 µM
TGI [17]: 3.26 µM
GI50 [18]: 2 µM
TGI [18]: 4.14 µM
GI50 [19]: 2.34 µM
TGI [19]: 5.55 µM
GI50 [20]: 21.9 µM
TGI [20]: 52.7 µM
GI50 [21]: 1.99 µM
TGI [21]: 4.3 µM
GI50 [22]: 2.1 µM
TGI [22]: 4.36 µM
GI50 [23]: 1.98 µM
TGI [23]: 4.31 µM
GI50 [24]: 2.03 µM
TGI [24]: 3.81 µM
GI50 [25]: 1.64 µM
TGI [25]: 3.35 µM
GI50 [26]: 2.26 µM
TGI [26]: 4.85 µM
GI50 [27]: 1.91 µM
TGI [27]: 4.16 µM
GI50 [28]: 2.33 µM
TGI [28]: 5.58 µM
GI50 [29]: 1.92 µM
TGI [29]: 3.81 µM
GI50 [30]: 1.72 µM
TGI [30]: 3.39 µM
GI50 [31]: 1.77 µM
TGI [31]: 3.44 µM
GI50 [32]: 2.03 µM
TGI [32]: 4.08 µM
GI50 [33]: 1.73 µM
TGI [33]: 3.44 µM
GI50 [34]: 1.64 µM
TGI [34]: 3.25 µM
GI50 [35]: 0.266 µM
TGI [35]: 0.892 µM
GI50 [36]: 1.59 µM
TGI [36]: 3.36 µM
GI50 [37]: 1.95 µM
TGI [37]: 3.74 µM
GI50 [38]: 2.1 µM
TGI [38]: 3.85 µM
GI50 [39]: 1.86 µM
TGI [39]: 3.46 µM
GI50 [40]: 16.6 µM
TGI [40]: 38 µM
GI50 [41]: 2.01 µM
TGI [41]: 4.25 µM
GI50 [42]: 1.62 µM
TGI [42]: 3.25 µM

Cc1[nH]c2ccccc2c1C1=CC(=O)N(c2ccccc2)C1=O
TGI [43]: 31.4 µM
TGI [1]: 60.3 µM
TGI [2]: > 100 µM
TGI [44]: > 100 µM
TGI [3]: > 100 µM
TGI [4]: > 100 µM
TGI [5]: 73.4 µM
TGI [6]: > 100 µM
TGI [7]: 52.5 µM
TGI [45]: 83.9 µM
TGI [8]: 7.38 µM
TGI [46]: 22.7 µM
TGI [9]: 34.5 µM
TGI [10]: 39 µM
TGI [11]: 25.5 µM
TGI [47]: 50.9 µM
TGI [12]: 43.5 µM
TGI [13]: 21.8 µM
TGI [48]: > 100 µM
TGI [14]: 29.8 µM
TGI [49]: 18.3 µM
TGI [50]: 32.2 µM
TGI [51]: 41.9 µM
TGI [16]: 48.1 µM
TGI [17]: > 100 µM
TGI [18]: > 100 µM
TGI [19]: > 100 µM
TGI [20]: 88.4 µM
TGI [21]: 60.9 µM
TGI [22]: 39.4 µM
TGI [52]: > 100 µM
TGI [24]: > 100 µM
TGI [26]: > 100 µM
TGI [53]: 50 µM
TGI [27]: > 100 µM
TGI [28]: > 100 µM
TGI [54]: 26.6 µM
TGI [29]: > 100 µM
TGI [55]: > 100 µM
TGI [56]: 27.1 µM
TGI [57]: 31.5 µM
TGI [30]: 20.5 µM
TGI [31]: 21.9 µM
TGI [32]: > 100 µM
TGI [33]: 86 µM
TGI [58]: > 100 µM
TGI [36]: 37.8 µM
TGI [38]: 60.7 µM
TGI [39]: 47.7 µM
TGI [40]: 61.5 µM
TGI [41]: 26.9 µM
TGI [42]: > 100 µM

CC(=O)NC(C(=O)NC(C)C(=O)N1CCCC1C(=O)O)C(C)C (stereo not drawn) (Ac-Val-Ala-Pro-OH; configuration not given here)
GI50 [5]: 89.9 µg/mL
GI50 [12]: 65.6 µg/mL
GI50 [57]: 83.8 µg/mL (≈ 256 µM)
GI50 [33]: 46.6 µg/mL

CC/C(=C\c1ccc(Cl)c(Cl)c1)[N+](=O)[O-]
TGI [1]: 24.1 µM
TGI [7]: 5.39 µM
TGI [45]: 7.88 µM
TGI [8]: 3.59 µM
TGI [46]: > 100 µM
TGI [10]: 5.67 µM
TGI [12]: > 100 µM
TGI [13]: > 100 µM
TGI [48]: 3.31 µM
TGI [14]: 47.4 µM
TGI [15]: 10.4 µM
TGI [51]: 4.11 µM
TGI [16]: 3.48 µM
TGI [17]: 5.4 µM
TGI [18]: 3.1 µM
TGI [19]: 2.01 µM
TGI [21]: 5.21 µM
TGI [23]: 3.49 µM
TGI [25]: 7.57 µM
TGI [53]: 3.4 µM
TGI [29]: 4.57 µM
TGI [55]: 5.36 µM
TGI [57]: 4.85 µM
TGI [31]: 3.92 µM
TGI [58]: 5.7 µM
TGI [34]: > 100 µM
TGI [35]: 3.61 µM
TGI [36]: > 100 µM
TGI [38]: 4.04 µM
TGI [40]: 3.58 µM
TGI [41]: 3.89 µM
